Data taken from US10035775B2, “Compositions for the treatment of fibrosis and fibrosis-related conditions” (VECTUS BIOSYSTEMS LIMITED, priority 2015, dated 2018).

Key:
[1] = tested on: bovine aortic endothelial cells; assay: xCELLigence cellular impedance (cell index) in bovine aortic endothelial cells; format: cell-based; details: 62.5 μM, 125 μM or 250 μM, measured for 3 hours, FIG. 13
From the text: The xCELLigence SP system (Roche) was used to measure changes in cellular impedance (cell index) following the treatment of bovine aortic endothelial cells (European Collection of Cell Cultures) with test compound. In this in vitro cell based experimental system a negative impedance profile correlates with blood pressure reduction in rats—a decrease in impedance is associated with vasodilatation and an increase in impedance is associated with vasoconstriction (Stallaert W, Dorn J F, van der Westhuizen E, Audet M & Bouvier M. Impedance responses reveal β-adrenergic signaling […] and allow classification of ligands with distinct signalling profiles PLoS ONE 2012; 7(1):e29420, doi:10.1371/journal.pone.0029420).
Briefly, 50 μl of cell culture medium (DMEM low glucose supplemented with 15% fetal bovine serum at 37° C.) was added to each well of an E-Plate 96 (Roche), and the background impedance in each well was measured. 50 μl of bovine aortic endothelial cell suspension (10,000 cells/well) was then added to the appropriate wells of the E-Plate 96. Cell index was monitored for each well of the E-Plate 96 in RTCA SP Station within the cell culture incubator. After overnight incubation for 16-20 hours at 5% CO2 and 95% humidity, 100 μl of test compound solution (test compounds were prepared in DMSO and diluted with cell culture medium to a concentration of 62.5 μM, 125 μM or 250 μM of test compound with a final DMSO concentration of 0.25%) was added to the appropriate wells of the E-Plate 96 and cell index values were measured immediately following compound treatment every 20 seconds for 3 hours. Cell index value is baseline-corrected by subtracting the cell index of vehicle-treated cells and normalized by dividing by the cell index at the time point immediately before compound addition. Baseline normalized cell index as a function of time is plotted using Roche RTCA software.

SHR [2] = assay: Hepatic fibrosis in SHR on high fat diet; format: in vivo, rat; details: 10% ethanol drinking solution, 500 pmol/kg/min for 6 weeks, compared to controls, FIG. 17
Experimental: Fourteen week old SHR on a high fat diet (Glen Forrest Stockfeeders) were randomly assigned to test compound drinking solution (500 pmol/kg/min test compound in 10% ethanol in deionised distilled water) or control drinking solution (10% ethanol in deionised distilled water). […] To quantitate tissue fibrosis and/or fat content, tissue slices≤3 mm thick were fixed in 10% buffered formalin for 24 hours, processed and embedded in paraffin. Three micron transverse sections were stained using Masson's trichrome stain. A minimum of 20 random fields at magnification×20 from transverse sections (5 at each of 2 levels) were digitized and the degree of fibrosis determined as a percent of field area of each digitized image using Image-Pro Plus V.7 (Media Cybernetics, Bethesda, Md., USA) then averaged to determine the level of fibrosis and/or fat content for each rat.

SHR [3] = assay: Masson's tri-chrome stained sections of portal tracts (liver tissue architecture); format: in vivo, rat; details: treated rats versus control, FIG. 18
From the text: (§1) Fourteen week old SHR on a high fat diet (Glen Forrest Stockfeeders) were randomly assigned to test compound drinking solution (500 pmol/kg/min test compound in 10% ethanol in deionised distilled water) or control drinking solution (10% ethanol in deionised distilled water). After 4 weeks, rats were anaesthetised and blood samples were taken for analysis of plasma aminotransferase (AST) levels and livers were harvested. To quantitate tissue fibrosis and/or fat content, tissue slices≤3 mm thick were fixed in 10% buffered formalin for 24 hours, processed and embedded in paraffin. Three micron transverse sections were stained using Masson's trichrome stain. A minimum of 20 random fields at magnification×20 from transverse sections (5 at each of 2 levels) were digitized and the degree of fibrosis determined as a percent of field area of each digitized image using Image-Pro Plus V.7 (Media Cybernetics, Bethesda, Md., USA) then averaged to determine the level of fibrosis and/or fat content for each rat.

SHR [4] = assay: Plasma aminotransferase (AST) levels in SHR on high fat diet; format: in vivo, rat; details: 10% ethanol drinking solution, compared to controls, FIG. 21, p<0.025
Experimental: Fourteen week old SHR on a high fat diet (Glen Forrest Stockfeeders) were randomly assigned to test compound drinking solution (500 pmol/kg/min test compound in 10% ethanol in deionised distilled water) or control drinking solution (10% ethanol in deionised distilled water). After 4 weeks, rats were anaesthetised and blood samples were taken for analysis of plasma aminotransferase (AST) levels and livers were harvested. Plasma AST levels were measured using a RefloVET Plus (Roche) machine using consumable strips with magnetic assay identifiers recognized by the machine. A calibration standard was used in the machine prior to each use and the device was operated according to the manufacturer's instructions. Results are presented as international units per liter (IU/L).

SHR [5] = assay: Fat accumulation in the liver in SHR on high fat diet; format: in vivo, rat; details: 500 pmol/kg/min for 4 weeks, compared to 18 week controls, FIG. 20, p<0.05
From the text: as §1

[6] = tested on: Human (HPCT-wt-05) renal proximal tubule cells; assay: Cisplatin induced cell death, human renal proximal tubule cells (WST-8/CCK-8); format: cell-based; details: human renal proximal tubular cells; cisplatin 5 μg/ml; 32 μM or 63 μM of compound; 24 hours; FIG. 14
Experimental: (§2) Human (HPCT-wt-05) and rat (NRK-52E) renal proximal tubule cells grown in (Keratinocyte Medium II+Keratinocyte Growth Supplement+5 ng/ml human recombinant epidermal growth factor+5% FBS+2 mM glutamine or DMEM+10% FBS+1% NEAA+2 mM glutamine respectively) were placed in 96 well plates at 10,000 cells/well and incubated at 37° C. with 5% CO2 overnight. Test compounds at concentrations of 32 μM or 63 μM were incubated with human or rat renal proximal tubule cells for 2 hours at 37° C. and 5% CO2. Cis-diamminedichloroplatinum[…] (cisplatin) was then added at a concentration of 5 μg/ml for human cells and 12.5 μg/ml for rat cells. Each cell population was then incubated for 24 hours at 37° C. with 5% CO2. Test compound A32 was maintained at its original concentrations. To assay the cytotoxic effects of cisplatin on the human and rat renal proximal tubule cells a highly water-soluble tetrazolium salt, WST-8, which is reduced by dehydrogenases in cells to produce formazan, a water-soluble, yellow-coloured indicator dye was used following the manufacturer's instructions (specifically the Cell Count Kit-8 (CCK-8) assay from Sigma). Plate absorbance of the WST-8 (CCK-8) reagent was then measured at 450 nm using a Thermo Scientific Multiskan EX plate reader.

[7] = tested on: rat (NRK-52E) renal proximal tubule cells; assay: Cisplatin induced cell death, rat renal proximal tubule cells (WST-8/CCK-8); format: cell-based; details: rat renal proximal tubular cells; cisplatin 12.5 μg/ml; 32 μM or 63 μM of compound; 24 hours; FIG. 14
Experimental: as §2

SHR [8] = assay: Interstitial fibrosis in the kidney in SHR on 2.2% salt diet; format: in vivo, rat; details: 5% ethanol drinking solution, 500 pmol/kg/min for 4 weeks, compared to 18 week controls, FIG. 15
From the text: (§3) Fourteen week old SHR on a 2.2% salt diet (Glen Forrest Stockfeeders) were randomly assigned to zero time control, test compound treatment (500 pmol/kg/min) in the drinking solution or control drinking solution (5% ethanol in deionised distilled water (n=5 each group). The rats assigned to zero time control group (14 weeks old rats) were anaesthetised and had their kidneys and heart harvested while rats assigned to control and test compound treatment were weighed twice weekly and had their drinking solution intake monitored to allow adjustment of the test compound concentration in the drinking solution to maintain a constant dose over the 4-week study period (18 weeks old rats). At the completion of the study period, rats were anaesthetised and had their kidneys and heart harvested. To quantitate tissue fibrosis and/or fat content, tissue slices≤3 mm thick were fixed in 10% buffered formalin for 24 hours, processed and embedded in paraffin. Three micron transverse sections were stained using Masson's trichrome stain. A minimum of 20 random fields at magnification×20 from transverse sections (5 at each of 2 levels) were digitized and the degree of fibrosis determined as a percent of field area of each digitized image using Image-Pro Plus V.7 (Media Cybernetics, Bethesda, Md., USA) then averaged to determine the level of fibrosis and/or fat content for each rat.

SHR [9] = assay: Myocardial fibrosis in SHR on 2.2% salt diet; format: in vivo, rat; details: 5% ethanol drinking solution, 500 pmol/kg/min for 4 weeks, compared to 14 and 18 week controls, FIG. 16
From the text: as §3

SHR [10] = assay: Masson's tri-chrome stained sections of heart tissue (tissue architecture); format: in vivo, rat; details: treated rats versus control, FIG. 19
From the text: as §3

| Structure (SMILES) | Cell impedance response (baseline normalized cell index) [1] | Hepatic fibrosis (SHR [2]) | Tissue architecture in portal tract sections (SHR [3]) | other results |
| --- | --- | --- | --- | --- |
| O=C1CC(Cc2cc(-c3ccccc3)ccc2-c2cccc(O)c2)C(=O)N1 (stereo not drawn) [A30, 3-[(3-Hydroxy-1,1′:4′,1″-terphenyl-2′-yl)methyl]pyrrolidine-2,5-dione] | Negative impedance responses | – | – | – |
| OCc1cc(-c2ccccc2)ccc1-c1cccc(O)c1 [A81] | Negative impedance responses | – | – | – |
| O=C(O)Cc1cc(-c2ccccc2)ccc1-c1cccc(O)c1 [A56k, (3-Hydroxy-1,1′:4′,1″-terphenyl-2′-yl)acetic acid] | Negative impedance responses | – | – | – |
| NC(CCc1cc(-c2ccccc2)ccc1-c1cccc(O)c1)C(F)(F)F (stereo not drawn) [A6, 2′-(3-Amino-4,4,4-trifluorobutyl)-1,1′:4′,1″-terphenyl-3-ol] | Negative impedance responses | decreased | normal tissue architecture has been restored | – |
| O=C1c2ccccc2C(=O)N1OCCc1cc(-c2ccccc2)ccc1-c1cccc(O)c1 [A56g, 2-[2-(3-Hydroxy-1,1′:4′,1″-terphenyl-2′-yl)ethoxy]-1H-isoindole-1,3(2H)-dione] | Negative impedance responses | – | – | – |
| OCCc1cc(-c2ccccc2)ccc1-c1cccc(O)c1 [A56f, 2′-(2-Hydroxyethyl)-1,1′:4′,1″-terphenyl-3-ol] | Negative impedance responses | decreased | normal tissue architecture has been restored | Plasma AST levels (SHR [4]): decreased |
| NOCCc1cc(-c2ccccc2)ccc1-c1cccc(O)c1 [A56, 2′-[2-(Aminooxy)ethyl]-1,1′:4′,1″-terphenyl-3-ol] | Negative impedance responses | – | normal tissue architecture has been restored | Fat in the liver (SHR [5]): reduced |
| O=C1NCCC1Cc1cc(-c2ccccc2)ccc1-c1cccc(O)c1 (stereo not drawn) [A26] | Negative impedance responses | – | – | – |
| O=C1NCC/C1=C\c1cc(-c2ccccc2)ccc1-c1cccc(O)c1 [A27] | Negative impedance responses | decreased | normal tissue architecture has been restored | Fat in the liver (SHR [5]): reduced |
| O=C1NC(=O)C(Cc2cc(-c3ccccc3)ccc2-c2cccc(O)c2)N1 (stereo not drawn) [A32, 5-((3-Hydroxy-[1,1′:4′,1″-terphenyl]-2′-yl)methyl)imidazolidine-2,4-dione] | Negative impedance responses | decreased | normal tissue architecture has been restored | Cisplatin induced cell death [6]: decreased; Cisplatin induced cell death [7]: decreased; Fibrosis in the kidney (SHR [8]): decreased; Myocardial fibrosis (SHR [9]): decreased; Fibrous tissue and tissue architecture in heart sections (SHR [10]): minimal fibrous tissue is present and normal tissue architecture has been restored; Fat in the liver (SHR [5]): reduced; Plasma AST levels (SHR [4]): decreased |
| Nc1nocc1Cc1cc(-c2ccccc2)ccc1-c1cccc(O)c1 [A35] | Negative impedance responses | – | – | – |
